Experimental findings from patent publication US20250009747A1, “ENDOTHELIN RECEPTOR ANTAGONISTS FOR USE IN TREATING OR PREVENTING MUSCLE FIBROSIS” (ASSOCIATION INSTITUT DE MYOLOGIE, priority 2021, published 2025) are described below.

What all share (assay type): cell-based, human
For test [1], the system named is FAPs from M^CT, FibM^CT and FibM^OP. In words: COL7A1 immunostaining as a readout of ECM production in FAPs treated with ET-1 +/- antagonist. Particulars: 3 days. The source says: (§1) Human FAPs cells were isolated from muscle biopsies obtained during surgical procedures via Myobank, affiliated to EuroBioBank, after informed consent in accordance with European recommendations and French legislation (authorization AC-2019-3502). Human FAPs isolated here as the CD56 negative cell fraction (Périé, S. et al. 2006), are obtained from control skeletal muscle: M^CT, control fibrotic cricopharyngeal muscle (CPM): FibM^CT, OPMD fibrotic CPM with exacerbated levels of fibrosis: FibM^OP, and fibrotic muscle from inclusion body myositis patients: FibM^IBM. All tested fibrotic muscle are skeletal fibrotic muscle. These cells expressed predominantly PDGFRa, CD90 and CD105 known markers of Fibro/Adipogenic Progenitors (FAPs) in human skeletal muscle. The tissue type, cell type, age, pathological condition and muscle fibrotic state of each biopsy sample are specified in table below.
(§2) The muscle biopsies were finely minced and explants were plated onto non-coated Petri dishes in drops of fetal bovine serum (FBS) (Invitrogen, Carlsbad, CA) as previously described (Bigot et al., 2009). Cells were cultivated at 37° C. in a humid atmosphere containing 5% CO2 and in growth medium consisting of 199 medium (Life technologies, Paisley, UK) and Dulbecco's Modified Eagle Medium (DMEM, Life technologies) in a 1:4 ratio supplemented with 20% Fetal Bovine Serum (FBS, Invitrogen), 25 μg/ml fetuin (Life technologies), 0.5 ng/mL bFGF (Life technologies), 5 ng/ml EGF (Life technologies), 5 μg/mL insulin (Sigma-Aldrich) and 50 μg/mL gentamycin (Life Technologies). Cells were labelled with CD56 antibody coupled to microbeads (130-050-401, MACS; Miltenyi Biotec, Paris, France) and then separated using a immunomagnetic cell sorting system (MACS) according to the manufacturer's instructions. The myogenic purity of both cell fractions (CD56+, myogenic and CD56−, non-myogenic) was monitored by immunocytochemistry using an antibody against desmin (clone D33, Dako, Trappes, France), exclusively expressed in myogenic cells.
The method for quantification of ET-1 protein is described in Le Bihan et al. 2012. Treatment of FAPs to evaluate the effect of ET-1 was performed on 70-80% confluence cells that were rinsed twice with DMEM and treated 3 days with proliferation medium at 1% FBS (instead of 20%) containing either DMSO or 40 nM ET-1 (E7764, Sigma-Aldrich)+/−10 μM Bosentan (SML1265, Sigma Aldrich), 10 nM BQ788 (SML192621, Sigma Aldrich), or 10 nM BQ123 (B150, Sigma-Aldrich). For proliferation experiment, Edu (10 μM) was added at day 2 and cells were fixed 24 h later. EdU labeling was carried out using the Click-iT™ EdU Cell Proliferation Kit (C10338, Life Technologies) according to the manufacturer's instructions. […]

The test system is the same in test [2]. In words: Edu proliferation of FAPs treated with ET-1 +/- antagonist. Particulars: 3 days.
Text: as §1
as §2, with “Cells were labelled with CD56 antibody coupled to microbeads (130-050-401, MACS; Miltenyi Biotec, Paris, France) and then separated using a immunomagnetic cell sorting system (MACS) according to the manufacturer's instructions.” left out
The method for quantification of ET-1 protein is described in Le Bihan et al. 2012. […]

Test [3] deals with myoblast cocultured with FAPs from FibM^OP. The experiment in a line: Coculture of myoblasts with FAPs from fibrotic muscle, fusion index. Conditions: Bosentan 10 μM added at day 0 and day 3, fixed at day 5, myoblasts/FAPs 70%/30%. On the procedure: Non-myogenic (CD56-) and myogenic (CD56+) cells were seeded together at a 30%/70% ratio and at a final confluence of 21000 cells/cm2. Once the cells have adhered, the medium was replaced by a differentiation medium composed by DMEM with 50 μg/mL gentamycin. To study the effect of Bosentan on the fusion index in coculture 10 μM of Bosentan (SML1265, Sigma Aldrich) was added to the wells at day 0 and day 3. Cells were fixed at day 5 in 4% paraformaldehyde (PFA). The fusion index was calculated as the ratio between the number of nuclei per myotube (>2 nuclei) identified by a desmin staining and the total number of desmin+nuclei. Immunostaining were performed on cells fixed in 4% PFA for 10 minutes (min) and incubated with blocking solution (PBS 2% FBS 0.2% Triton) for 30 minutes (min). Fixed cells were then incubated 1 h with primary antibodies (COL7A1 […] Sigma Aldrich 1/800; Desmin […] Dako 1/50). Detection of immune complexes was performed using the appropriate Alexa-Fluor-secondary antibodies purchased from Life Technologies (Grand Island, NY) for 45 min. Nuclei and actin filament were counterstained with Hoechst and Phalloidin-Alexa 568 (Interchim 1/400) respectively.

Structures are written as SMILES. Entries after “also recorded” stand apart in the source; their conditions may differ. Square brackets hold non-standard residues; d marks the D form. Peptide text beside a SMILES is read from it.

Regarding `CC(C)C[C@@H]1NC(=O)[C@@H](C(C)C)NC(=O)[C@@H]2CCCN2C(=O)[C@@H](CC(=O)O)NC(=O)[C@@H](Cc2c[nH]c3ccccc23)NC1=O` [BQ123] (cyclo(L[dW][dD]P[dV])), the “ECM production (percentage of COL7A1 positive cells)” value in test [1] (ET-1 40 nM + antagonist 10 nM) is given as “decrease of ECM production”.
As to `CCCC[C@@H](NC(=O)[C@@H](Cc1cn(C(=O)OC)c2ccccc12)NC(=O)[C@H](CC(C)(C)C)NC(=O)N1[C@H](C)CCC[C@@H]1C)C(=O)O` [BQ788], the “ECM production (percentage of COL7A1 positive cells)” value in test [1] (ET-1 40 nM + antagonist 10 nM) is listed as “decrease of ECM production”. In test [2] (ET-1 40 nM + BQ788 10 nM), the “proliferation (percentage of Edu positive cells)” value was “decrease of proliferation”.
Consider `COc1ccccc1Oc1c(NS(=O)(=O)c2ccc(C(C)(C)C)cc2)nc(-c2ncccn2)nc1OCCO` [Bosentan], for which, in test [1] (ET-1 40 nM + Bosentan 10 μM), the “ECM production (percentage of COL7A1 positive cells)” value is “partially abolished the effect of ET1”. Moreover, the fusion index result in test [3] is reported as “partially restored to control levels”. In addition, the “proliferation (percentage of Edu positive cells)” value in test [2] (ET-1 40 nM + Bosentan 10 μM) is “partially abolished the effect of ET1; also recorded: decrease of proliferation”.
As for `CC[C@H](C)[C@H](NC(=O)[C@H](CC(=O)O)NC(=O)[C@H](CC(C)C)NC(=O)[C@H](Cc1c[nH]cn1)NC(=O)[C@@H]1CSSC[C@H](N)C(=O)N[C@@H](CO)C(=O)N[C@H]2CSSC[C@H](NC(=O)[C@H](CCC(=O)O)NC(=O)[C@H](CCCCN)NC(=O)[C@H](CC(=O)O)NC(=O)[C@H](CCSC)NC(=O)[C@H](CC(C)C)NC(=O)[C@H](CO)NC(=O)[C@H](CO)NC2=O)C(=O)N[C@@H](C(C)C)C(=O)N[C@@H](Cc2ccc(O)cc2)C(=O)N[C@@H](Cc2ccccc2)C(=O)N1)C(=O)N[C@H](C(=O)N[C@@H](Cc1c[nH]c2ccccc12)C(=O)O)[C@@H](C)CC` [ET1], the “ECM production (percentage of COL7A1 positive cells)” value in test [1] (ET-1 40 nM, vs DMSO) is recorded as “increased”. Further, the “proliferation (percentage of Edu positive cells)” value in test [2] (ET-1 40 nM, vs DMSO) is given as “increased”.
